Data on 59 molecules can be found in BindingDB's records for doi:10.7270/Q2TX3CTT (Broad Institute, 2010).

Counter-ions that a name gives are not always drawn.

Broadly, the EC50 is the midpoint of the concentration-response curve. Read a low EC50 as higher potency in that assay.

Glycogen synthase kinase-3 beta, sequence (P49841 whole entry): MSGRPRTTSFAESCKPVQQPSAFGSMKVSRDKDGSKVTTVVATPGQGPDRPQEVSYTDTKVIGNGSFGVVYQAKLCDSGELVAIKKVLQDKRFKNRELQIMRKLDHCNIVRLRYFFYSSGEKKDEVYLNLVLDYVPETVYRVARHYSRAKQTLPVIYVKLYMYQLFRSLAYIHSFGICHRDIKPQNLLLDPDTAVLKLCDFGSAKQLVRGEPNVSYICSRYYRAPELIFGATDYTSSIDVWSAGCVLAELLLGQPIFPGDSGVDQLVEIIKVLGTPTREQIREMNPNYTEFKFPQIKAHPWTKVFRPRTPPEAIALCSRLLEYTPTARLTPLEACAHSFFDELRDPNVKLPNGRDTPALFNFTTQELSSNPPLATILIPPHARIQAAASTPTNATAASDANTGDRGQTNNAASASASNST

The assay concerns the target Glycogen synthase kinase-3 beta (Homo sapiens, UniProt P49841). Kind of assay: GSK3beta kinase inhibitor potency, dose response, biochemical, luminescence, cell-free homogeneous, retest (AID 434954).
Consider `COc1cccc2cc(CC(=O)c3ccc(C)cc3C)c(=O)oc12` [3-[2-(2,4-dimethylphenyl)-2-oxoethyl]-8-methoxychromen-2-one], for which the EC50 was > 300 µM.
As to `O=NCc1ccc(SCc2ccccc2)c([N+](=O)[O-])c1` [SMR000169144], the EC50 is > 300 µM.
Molecule `COc1ccc(C=C2SC(NCc3ccccc3)=NC2=O)cc1` [(5Z)-5-[(4-methoxyphenyl)methylidene]-2-[(phenylmethyl)amino]-1,3-thiazol-4-one] registered an EC50 of 7.01 µM.
The same measure for `Clc1ccc(CSc2nnc(-c3ccncc3)o2)cc1` [2-[(4-chlorobenzyl)thio]-5-(4-pyridyl)-1,3,4-oxadiazole]: 25.9 µM; for `Cc1cc(C)n2nc(SCC(=O)N(CC(C)C)c3c(N)n(CC(C)C)c(=O)[nH]c3=O)nc2n1`: > 300 µM; for `CC(C)c1ccc(C(=O)NCCCN2CCN(CCCNC(=O)c3ccc(C(C)C)cc3)CC2)cc1` [SMR000272164]: > 300 µM.
Molecule `Cc1ccc(-n2c(=O)c3c4c(sc3n3c(S)nnc23)CCC4)cc1` [SMR000419881] returned an EC50 of 44.5 µM.
Regarding `O=C1Nc2ccccc2/C1=N/c1cccc([N+](=O)[O-])c1` [MLS001194693], the EC50 was > 300 µM.
Regarding `CCNc1nc(SCC(N)=O)nc2sc3c(c12)CCN(C)C3` [2-[[4-(ethylamino)-7-methyl-6,8-dihydro-5H-pyrido[4,5]thieno[1,2-c]pyrimidin-2-yl]sulfanyl]acetamide], the EC50 stood at 49.4 µM.
The result for `CCOc1ccccc1NC(=O)CSc1nnc(C2CC2)n1CC` [2-[(5-cyclopropyl-4-ethyl-1,2,4-triazol-3-yl)thio]-N-(2-ethoxyphenyl)acetamide] reads > 300 µM.
On to `CC(C)OCCCNC(=O)c1ccc(CS(=O)(=O)Cc2ccccc2F)o1` [5-[(2-fluorophenyl)methylsulfonylmethyl]-N-(3-propan-2-yloxypropyl)furan-2-carboxamide], for which the concentration giving a half-maximal response (EC50) was > 300 µM.
The same measure for `O=C(O)c1ccc(-c2ccc(CN=Nc3ccc([N+](=O)[O-])cc3)o2)cc1`: > 300 µM.
As for `Cc1ccc(NC(=O)Nc2cc(-c3ccccc3)nn2C)cc1Cl` [N-(3-chloro-4-methylphenyl)-N'-(1-methyl-3-phenyl-1H-pyrazol-5-yl)urea], the EC50 is > 300 µM.
Consider `CC(=O)NC(=S)Nc1ccccc1N1CCCCC1` [SMR000292167], for which the EC50 is > 300 µM.
On to `CC1(C)CC(=O)C=C(Nc2ccccn2)C1`, for which the EC50 is > 300 µM.
For `O=C(COc1ccccc1[N+](=O)[O-])NN=Cc1ccc(OC(=O)c2ccco2)cc1` [4-((E)-{2-[2-(2-nitrophenoxy)acetyl]hydrazono}methyl)phenyl 2-furoate], the EC50 came out at 14.7 µM.
The same measure for `COc1ccc2c(c1)C(=O)Nc1cc(Cl)ccc1N2` [8-chloro-2-methoxy-5,10-dihydro-11H-dibenzo[b,e][1,4]diazepin-11-one]: > 300 µM; for `Nc1nonc1-n1nnc(C(=O)NN=Cc2ccc(Cl)cc2Cl)c1CN1CCCC1` [1-(4-azanyl-1,2,5-oxadiazol-3-yl)-N-[(2,4-dichlorophenyl)methylideneamino]-5-(pyrrolidin-1-ylmethyl)-1,2,3-triazole-4-carboxamide]: > 300 µM; for `CCOC(=O)c1cnc2ccc(C(=O)OC)cc2c1Nc1ccc2c(c1)OCCO2` [4-(2,3-Dihydro-benzo[1,4]dioxin-6-ylamino)-quinoline-3,6-dicarboxylic acid 3-ethyl ester 6-methyl ester]: 9.12 µM.
`NCCCNc1nc(N)c([N+](=O)[O-])c(NC2CCCCC2)n1` [N2-(3-aminopropyl)-N4-cyclohexyl-5-nitropyrimidine-2,4,6-triamine] returned an EC50 of 3.06 µM.
The same measure for `O=C(OCc1ccc(COC(=O)c2ccc(O)cc2)cc1)c1ccc(O)cc1` [SMR000588531]: > 300 µM.
On to `COCCNC(=O)c1ccc(Cl)c(Cl)c1` [SMR000069998], for which the EC50 is > 300 µM.
The same measure for `Cc1[nH]nc2c1C(c1ccc(N(C)C)cc1)C1C(=O)CC(C)(C)CC1=N2` (centres undefined) [SMR000343282]: 28 µM; for `CC(C(=O)NC1CCCCCC1)n1cc([N+](=O)[O-])cn1` (centres undefined) [N-cycloheptyl-2-(4-nitro-1-pyrazolyl)propanamide]: > 300 µM; for `Cc1ccc(S(=O)(=O)CC(=O)Nc2ncc([N+](=O)[O-])s2)cc1` [2-(4-methylphenyl)sulfonyl-N-(5-nitro-1,3-thiazol-2-yl)acetamide]: > 300 µM.
The result for `CCCCc1cc(=O)oc2cc(C)cc(OC(C)C(=O)O)c12` (centres undefined) [SMR000043773] reads > 300 µM.
The result for `CCNc1nc(N)c(C(=O)C23CC4CC(CC(C4)C2)C3)s1` [Adamantan-1-yl-(4-amino-2-ethylamino-thiazol-5-yl)-methanone] reads > 300 µM.
In the case of `O=C(O)c1cc(-c2ccc(C=NNC(=S)Nc3ccccc3)o2)ccc1Cl` [5-[5-[[[anilino(sulfanylidene)methyl]hydrazinylidene]methyl]-2-furanyl]-2-chlorobenzoic acid], the 50% effective concentration (EC50) is > 300 µM.
The result for `CCSc1ncnc2c(C#N)c3n(c12)CCCCC3` [4-ethylsulfanyl-7,8,9,10-tetrahydro-6H-pyrimido[3,4]pyrrolo[3,5-a]azepine-11-carbonitrile] reads 77.5 µM; that for `Cc1[nH]n(-c2ccccc2)c(=O)c1/C=N/NC(=O)COc1ccccc1[N+](=O)[O-]` [MLS000592191], > 300 µM; that for `CN1CCc2c(sc3c2c(=O)n(-c2ccccc2)c2nncn32)C1` [SMR000045494], > 300 µM.
The same measure for `N#Cc1c(O)nc(SCC(=O)Nc2nnc(C(F)(F)F)s2)nc1-c1ccccc1` [2-[(5-cyano-4-oxo-6-phenyl-1H-pyrimidin-2-yl)sulfanyl]-N-[5-(trifluoromethyl)-1,3,4-thiadiazol-2-yl]acetamide]: > 300 µM; for `COc1ccc(C(=O)c2coc3ccc(O)c(CN4CCOCC4)c23)cc1` [MLS000115876]: > 300 µM; for `O=C(CSc1ccc2nnc(-c3ccc(F)cc3)n2n1)N1CCOCC1` [2-[[3-(4-fluorophenyl)-[1,2,4]triazolo[4,3-b]pyridazin-6-yl]sulfanyl]-1-morpholin-4-yl-ethanone]: > 300 µM.
`O=NCc1cn(CCC(=O)O)nc1-c1cccc([N+](=O)[O-])c1` [SMR000371064]: the EC50 was 7.38 µM.
The result for `CN(C)Cc1c(C(=O)NN=Cc2ccccc2OCc2c(F)cccc2Cl)nnn1-c1nonc1N` [1-(4-azanyl-1,2,5-oxadiazol-3-yl)-N-[[2-[(2-chloranyl-6-fluoranyl-phenyl)methoxy]phenyl]methylideneamino]-5-[(dimethylamino)methyl]-1,2,3-triazole-4-carboxamide] reads 0.116 µM; that for `CCOc1ccc2c(c1)C(=O)C(=O)N2CC1COc2ccccc2O1` (centres undefined) [1-(2,3-dihydro-1,4-benzodioxin-3-ylmethyl)-5-ethoxy-indole-2,3-dione], > 300 µM; that for `CN(C)c1nc2c(N)ncnc2n1[C@H]1O[C@@H](CO)[C@H](O)[C@@H]1O` [MLS001181978], > 300 µM.
The same measure for `O=C(c1ccccc1)c1ccc(NCCCn2ccnc2)c([N+](=O)[O-])c1` [SMR000588423]: 6.85 µM; for `CCOc1ccc2nc(NC(=O)CSc3nc4cccnc4n3C)sc2c1`: 1.25 µM.
The result for `COc1ccc(-c2nn(-c3ccccc3)cc2/C=C(\C#N)S(=O)(=O)c2ccccc2)cc1OC` [(E)-2-(benzenesulfonyl)-3-[3-(3,4-dimethoxyphenyl)-1-phenyl-4-pyrazolyl]-2-propenenitrile] reads > 300 µM; that for `FC(F)(F)COc1ccc(-n2ccnc2)nn1` [SMR000307161], > 300 µM.
In turn, `CC1=Nc2ncnn2C(c2c[nH]c3ccccc23)C1C(=O)OC(C)C` (centres undefined) returned an EC50 of 1.81 µM.
The molecule `N=C(N)N/N=C1/C(=O)Nc2ccc(Br)cc21` [2-[(5-bromo-2-oxo-3-indolyl)amino]guanidine;hydrochloride] yielded an EC50 of 31.4 µM.
The same measure for `O=NCc1cn(-c2ccccc2)nc1-c1ccc2c(c1)OCCO2` [N-[[3-(2,3-dihydro-1,4-benzodioxin-6-yl)-1-phenylpyrazol-4-yl]methylidene]hydroxylamine]: 58.7 µM; for `CC(=O)Nc1ccc(S(=O)(=O)Nc2ccc3c(c2)OCCO3)cc1Cl` [MLS000850184]: > 300 µM; for `O=[N+]([O-])c1ccccc1S(=O)(=O)N1CCc2ccccc2C1` [SMR000273931]: > 300 µM.
The same measure for `O=c1[nH]c2ccccc2c(=O)n1-c1ccc(Cl)cc1Cl` [3-(2,4-dichlorophenyl)quinazoline-2,4(1H,3H)-dione]: > 300 µM; for `COCCCNc1nc(N)c([N+](=O)[O-])c(NCC2CCCO2)n1` (centres undefined): 3.93 µM.
The same measure for `O=[N+]([O-])c1ccccc1[CH+][N-]n1c(C2CCCCC2)n[nH]c1=S` [5-Cyclohexyl-4-{[1-(2-nitro-phenyl)-meth-(E)-ylidene]-amino}-4H-[1,2,4]triazole-3-thiol]: 155 µM; for `Cc1ccc(S(=O)(=O)N(C)CC(=O)N2CCCc3ccccc32)cc1` [SMR000076264]: > 300 µM; for `CCOC(=O)c1cnc2c(OC)cccc2c1N1CCN(c2ccc(OC)cc2)CC1`: > 300 µM.
Take `COCCn1c(SCC(=O)NC(C)c2ccccc2)nc2ccccc21` (centres undefined) [SMR000590006]: the EC50 is > 300 µM.
Take `COc1cc(C2C3=C(CC(C)(C)CC3=O)N=C(C)C2C#N)ccc1O` (centres undefined) [4-(4-hydroxy-3-methoxyphenyl)-2,7,7-trimethyl-5-oxo-1,4,6,8-tetrahydroquinoline-3-carbonitrile]: the EC50 is > 300 µM.
The result for `O=C(Nc1nnc(-c2cc(Cl)ccc2Cl)o1)c1ccco1` reads > 300 µM; that for `NC(=O)c1ccc(Oc2ccc(Cl)c3ccccc23)c([N+](=O)[O-])c1` [4-(4-chloronaphthalen-1-yl)oxy-3-nitrobenzamide], > 300 µM; that for `Cc1cc2oc(=O)cc(Cn3ccnc3)c2cc1O` [6-hydroxy-4-(imidazol-1-ylmethyl)-7-methylchromen-2-one], > 300 µM.
The result for `Cc1ncc(CN2CCCC(C(=O)Nc3ccc(-c4cccc(F)c4)cc3)C2)cn1` (centres undefined) [N-[4-(3-fluorophenyl)phenyl]-1-[(2-methylpyrimidin-5-yl)methyl]piperidine-3-carboxamide] reads > 300 µM; that for `CCSc1ccc2nnc(-c3cccs3)n2n1` [6-ethylsulfanyl-3-thiophen-2-yl-[1,2,4]triazolo[4,3-b]pyridazine], 11.3 µM.
